From patent publication US8324186B2, “4-azetidinyl-1-heteroatom linked-cyclohexane antagonists of CCR2” (Janssen Pharmaceutica N.V., priority 2009, dated 2012)

Target: T1, CCR2 (Homo sapiens, UniProt P41597)
T1 construct: host or cells: THP-1 human monocytic cells
Assay: MCP-1 Receptor Binding Assay in THP-1 Cells (125I-MCP-1 displacement)
Conditions: 0.5 nM 125I labeled MCP-1, 2 hours at 30° C., read-out: CCR2 Binding, Inhibition of MCP-1 Binding IC50
Experimental: Compounds of the invention were subjected to various representative biological tests. The results of these tests are intended to illustrate the invention in a non-limiting fashion. MCP-1 Receptor Binding Assay in THP-1 Cells
Human monocytic cell line THP-1 cells were obtained from American Type Culture Collection (Manassas, Va., USA). The THP-1 cells were grown in RPMI-1640 (RPMI: Roswell Park Memorial Institute Medium-cell culture growth media) supplemented with 10% fetal bovine serum in a humidified 5% CO2 atmosphere at 37° C. The cell density was maintained […].
THP-1 (cells were incubated with 0.5 nM ^125I labeled MCP-1 (Perkin-Elmer Life Sciences, Inc. Boston, Mass.) in the presence of varying concentrations of either unlabeled MCP-1 (R & D Systems, Minneapolis, Minn.) or test compound for 2 hours at 30° C. in a 96 well plate. Cells were then harvested onto a filter plate, dried, and 20 μL of Microscint 20 was added to each well. Plates were counted in a TopCount NXT, Microplate Scintillation & Luminescence Counter (Perkin-Elmer Life Sciences, Inc. Boston, Mass.). Blank values (buffer only) were subtracted from all values and drug treated values were compared to vehicle treated values. 1 μM cold MCP-1 was used for nonspecific binding.
Table 1 lists IC50 values for inhibition of MCP-1 binding to CCR2 obtained for test compounds of the invention. Where an IC50 value was not obtained for a particular compound, the percent inhibition is provided at a test concentration of 25 μM.

T1 sequence (P41597 whole entry): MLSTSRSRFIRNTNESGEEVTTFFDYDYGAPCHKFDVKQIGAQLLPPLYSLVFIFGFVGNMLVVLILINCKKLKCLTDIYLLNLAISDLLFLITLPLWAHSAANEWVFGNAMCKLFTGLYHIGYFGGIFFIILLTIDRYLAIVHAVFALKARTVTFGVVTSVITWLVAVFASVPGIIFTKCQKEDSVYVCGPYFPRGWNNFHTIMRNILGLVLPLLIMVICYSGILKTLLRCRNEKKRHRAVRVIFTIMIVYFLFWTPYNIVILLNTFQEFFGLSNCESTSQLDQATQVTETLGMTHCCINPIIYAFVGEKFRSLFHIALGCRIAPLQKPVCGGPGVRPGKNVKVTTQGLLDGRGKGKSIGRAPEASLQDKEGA

Row | Structure (SMILES) | IC50 [µM]
1 | O=C(CNC(=O)c1cccc(C(F)(F)F)c1)NC1CN(C2CCC(n3ccccc3=O)CC2)C1 (single isomer, unassigned) [Example 1a, N-({1-[4-(2-Oxo-2H-pyridin-1-yl)-cyclohexyl]-azetidin-3-ylcarbamoyl}-methyl)-3-trifluoromethyl-benzamide] | 0.13
2 | O=C(CNC(=O)c1cccc(C(F)(F)F)c1)NC1CN(C2CCC(Oc3ccccn3)CC2)C1 (single isomer, unassigned) [Example 2a, N-({1-[4-(Pyridin-2-yloxy)-cyclohexyl]-azetidin-3-ylcarbamoyl}-methyl)-3-trifluoromethyl-benzamide] | 0.23
3 | O=C(CNC(=O)c1cccc(C(F)(F)F)c1)NC1CN(C2CCC(Oc3ncc(Br)cn3)CC2)C1 (single isomer, unassigned) [Example 5a, N-({1-[4-(5-Bromo-pyrimidin-2-yloxy)-cyclohexyl]-azetidin-3-ylcarbamoyl}-methyl)-3-trifluoromethyl-benzamide] | 24
4 | O=C(CNC(=O)c1cccc(C(F)(F)F)c1)NC1CN(C2CCC(n3cnccc3=O)CC2)C1 (single isomer, unassigned) [Example 6a, N-({1-[4-(6-Oxo-6H-pyrimidin-1-yl)-cyclohexyl]-azetidin-3-ylcarbamoyl}-methyl)-3-trifluoromethyl-benzamide] | 0.38
5 | O=C(CNC(=O)c1cccc(C(F)(F)F)c1)NC1CN(C2CCC(Oc3ccncn3)CC2)C1 (single isomer, unassigned) [Example 7a, N-({1-[4-(Pyrimidin-4-yloxy)-cyclohexyl]-azetidin-3-ylcarbamoyl}-methyl)-3-trifluoromethyl-benzamide] | 2.7
6 | O=C(CNC(=O)c1cccc(C(F)(F)F)c1)NC1CN(C2CCC(n3cc(I)ccc3=O)CC2)C1 (single isomer, unassigned) [Example 8a, N-({1-[4-(5-Iodo-2-oxo-2H-pyridin-1-yl)-cyclohexyl]-azetidin-3-ylcarbamoyl}-methyl)-3-trifluoromethyl-benzamide] | 0.43
7 | Cc1ccc(OC2CCC(N3CC(NC(=O)CNC(=O)c4cccc(C(F)(F)F)c4)C3)CC2)nc1 (single isomer, unassigned) [Example 12a, N-({1-[4-(5-Methyl-pyridin-2-yloxy)-cyclohexyl]-azetidin-3-ylcarbamoyl}-methyl)-3-trifluoromethyl-benzamide] | 0.82
8 | COc1cccn(C2CCC(N3CC(NC(=O)CNC(=O)c4cccc(C(F)(F)F)c4)C3)CC2)c1=O (single isomer, unassigned) [Example 13a, N-({1-[4-(3-Methoxy-2-oxo-2H-pyridin-1-yl)-cyclohexyl]-azetidin-3-ylcarbamoyl}-methyl)-3-trifluoromethyl-benzamide] | 0.1
9 | O=C(CNC(=O)c1cccc(C(F)(F)F)c1)NC1CN(C2CCC(n3ccc(O)cc3=O)CC2)C1 (single isomer, unassigned) [Example 15a, N-({1-[4-(4-Hydroxy-2-oxo-2H-pyridin-1-yl)-cyclohexyl]-azetidin-3-ylcarbamoyl}-methyl)-3-trifluoromethyl-benzamide] | 5.4
10 | Cc1cccn(C2CCC(N3CC(NC(=O)CNC(=O)c4cccc(C(F)(F)F)c4)C3)CC2)c1=O (single isomer, unassigned) [Example 18a, N-({1-[4-(3-Methyl-2-oxo-2H-pyridin-1-yl)-cyclohexyl]-azetidin-3-ylcarbamoyl}-methyl)-3-trifluoromethyl-benzamide] | 0.33
11 | O=C(CNC(=O)c1cccc(C(F)(F)F)c1)NC1CN(C2CCC(n3cc(C(F)(F)F)ccc3=O)CC2)C1 (single isomer, unassigned) [Example 21a, N-({1-[4-(2-Oxo-5-trifluoromethyl-2H-pyridin-1-yl)-cyclohexyl]-azetidin-3-ylcarbamoyl}-methyl)-3-trifluoromethyl-benzamide] | 6.5
12 | O=C(CNC(=O)c1cccc(C(F)(F)F)c1)NC1CN(C2CCC(n3cc(Cl)ccc3=O)CC2)C1 (single isomer, unassigned) [Example 22a, N-({1-[4-(2-Oxo-5-chloro-2H-pyridin-1-yl)-cyclohexyl]-azetidin-3-ylcarbamoyl}-methyl)-3-trifluoromethyl-benzamide] | 1.1
13 | O=C(CNC(=O)c1cccc(C(F)(F)F)c1)NC1CN(C2CCC(N3C(=O)c4ccccc4C3=O)CC2)C1 (single isomer, unassigned) [Example 24a, N-({1-[4-(1,3-Dioxo-1,3-dihydro-isoindol-2-yl)-cyclohexyl]-azetidin-3-ylcarbamoyl}-methyl)-3-trifluoromethyl-benzamide] | 0.68
14 | O=C(CNC(=O)c1cccc(C(F)(F)F)c1)NC1CN(C2CCC(Oc3noc4ccccc34)CC2)C1 (single isomer, unassigned) [Example 25a, N-({1-[4-(Benzo[d]isoxazol-3-yloxy)-cyclohexyl]azetidin-3-ylcarbamoyl}-methyl)-3-trifluoromethyl-benzamide] | 0.34
15 | O=C(CNC(=O)c1cccc(C(F)(F)F)c1)NC1CN(C2CCC(n3oc4ccccc4c3=O)CC2)C1 (single isomer, unassigned) [Example 26a, N-({1-[4-(3-Oxo-3H-benzo[d]isoxazol-2-yl)-cyclohexyl]-azetidin-3-ylcarbamoyl}-methyl)-3-trifluoromethyl-benzamide] | 0.095
16 | Cc1cnn(C2CCC(N3CC(NC(=O)CNC(=O)c4cccc(C(F)(F)F)c4)C3)CC2)c1 (single isomer, unassigned) [Example 27a, N-({1-[4-(4-Methyl-pyrazol-1-yl)-cyclohexyl]-azetidin-3-ylcarbamoyl}-methyl)-3-trifluoromethyl-benzamide] | 0.17
17 | C[Si](C)(C)C#Cc1cnn(C2CCC(N3CC(NC(=O)CNC(=O)c4cccc(C(F)(F)F)c4)C3)CC2)c1 (single isomer, unassigned) [Example 29a, 3-Trifluoromethyl-N-({1-[4-(4-trimethylsilanylethynyl-pyrazol-1-yl)-cyclohexyl]-azetidin-3-ylcarbamoyl}-methyl)-benzamide] | 0.021
18 | C#Cc1cnn(C2CCC(N3CC(NC(=O)CNC(=O)c4cccc(C(F)(F)F)c4)C3)CC2)c1 (single isomer, unassigned) [Example 30a, N-({1-[4-(4-Ethynyl-pyrazol-1-yl)-cyclohexyl]-azetidin-3-ylcarbamoyl}-methyl)-3-trifluoromethyl-benzamide] | 0.088
19 | O=C(CNC(=O)c1cccc(C(F)(F)F)c1)NC1CN(C2CCC(n3ccnc3)CC2)C1 (single isomer, unassigned) [Example 31a, N-{[1-(4-Imidazol-1-yl-cyclohexyl)-azetidin-3-ylcarbamoyl]-methyl}-3-trifluoromethyl-benzamide] | 0.34
20 | O=C(CNC(=O)c1cccc(C(F)(F)F)c1)NC1CN(C2CCC(n3ncc4ccccc43)CC2)C1 (single isomer, unassigned) [Example 32a, N-{[1-(4-Indazol-1-yl-cyclohexyl)-azetidin-3-ylcarbamoyl]-methyl}-3-trifluoromethyl-benzamide] | 0.51
21 | O=C(CNC(=O)c1cccc(C(F)(F)F)c1)NC1CN(C2CCC(Oc3nsc4ccccc34)CC2)C1 (single isomer, unassigned) [Example 34a, N-({1-[4-(Benzo[d]isothiazol-3-yloxy)-cyclohexyl]-azetidin-3-ylcarbamoyl}-methyl)-3-trifluoromethyl-benzamide] | 0.29
22 | O=C(CNC(=O)c1cccc(C(F)(F)F)c1)NC1CN(C2CCC3(CC2)OC(=O)c2ccccc23)C1 (single isomer, unassigned) [Example 38a] | 0.92
23 | O=C(CNC(=O)c1cccc(C(F)(F)F)c1)NC1CN(C2CCC3(CC2)NC(=O)c2ccccc23)C1 (single isomer, unassigned) [Example 39a] | 1.5
24 | O=C(CNC(=O)c1cccc(C(F)(F)F)c1)NC1CN(C2CCC3(CC2)OC(=O)Nc2ccccc23)C1 (single isomer, unassigned) [Example 40a] | 2.2
25 | O=C(CNC(=O)c1cccc(C(F)(F)F)c1)NC1CN(C2CCC3(CC2)OCc2ccccc23)C1 (single isomer, unassigned) [Example 41a, N-[(1-3′H-Spiro[cyclohex-1,1′-isobenzofuran]-4-yl-azetidin-3-ylcarbamoyl)-methyl]-3-trifluoromethyl-benzamide] | 0.08
26 | O=C(CNC(=O)c1cccc(C(F)(F)F)c1)NC1CN(C2CCC(n3cc(Br)cnc3=O)CC2)C1 (stereo not shown) [Example 3, N-({1-[4-(5-Bromo-2-oxo-2H-pyrimidin-1-yl)-cyclohexyl]-azetidin-3-ylcarbamoyl}-methyl)-3-trifluoromethyl-benzamide] | 2.2
27 | O=C(CNC(=O)c1cccc(C(F)(F)F)c1)NC1CN(C2CCC(n3cccnc3=O)CC2)C1 (stereo not shown) [Example 4, N-({1-[4-(2-Oxo-2H-pyrimidin-1-yl)-cyclohexyl]-azetidin-3-ylcarbamoyl}-methyl)-3-trifluoromethyl-benzamide] | 5.9
28 | C#Cc1ccc(=O)n(C2CCC(N3CC(NC(=O)CNC(=O)c4cccc(C(F)(F)F)c4)C3)CC2)c1 (stereo not shown) [Example 9, N-({1-[4-(5-Ethynyl-2-oxo-2H-pyridin-1-yl)-cyclohexyl]-azetidin-3-ylcarbamoyl}-methyl)-3-trifluoromethyl-benzamide] | 1.6
